The term IC50 denotes the concentration that gives 50% inhibition.

These results are taken from patent US7932270B2 (Cytokinetics, Inc., priority 2006, dated 2011).

This assay deals with T1, chicken gizzard smooth muscle myosin subfragment-1 chemically crosslinked to cardiac or skeletal actin (Gallus gallus, UniProt P10587).
T1 construct: chicken gizzard smooth muscle myosin subfragment-1; from tissue; host or cells: chicken gizzard
Kind of assay: Smooth muscle myosin ATPase dose response assay (pyruvate kinase/horseradish peroxidase/pyruvate oxidase-coupled, amplex red fluorescence). It is filed as biochemical. As to conditions: read-out: IC50 Arithmetic Mean. How it is done:
In Vitro Model of Dose Dependent Smooth Muscle Myosin ATPase Modulation
Screening assays were performed using a pyruvate kinase and lactate dehydrogenase-coupled ATPase assay containing the following reagents: Potassium PIPES (50 mM), MgCl2 (3 mM), KCl (100 mM), ATP (0.15 mM), DTT (1 mM), BSA (0.1 mg/ml), NADH (0.5 mM), PEP (1.5 mM), pyruvate kinase (4 U/ml), lactate dehydrogenase (8 U/ml), and antifoam (50 ppm) (concentrations expressed are final assay concentrations). The pH was adjusted to 6.80 at 22° C. by addition of potassium hydroxide. Lead optimization assays were performed with a more sensitive pyruvate kinase/horseradish peroxidase/pyruvate oxidase-coupled ATPase assay containing the following reagents: Potassium PIPES (12 mM), MgCl2 (2 mM), KCl (100 mM), ATP (0.15 mM), BSA (0.05 mg/ml), potassium phosphate (2 mM), amplex red (0.1 mM), PEP (0.1 mM), pyruvate kinase (4 U/ml), horseradish peroxidase (0.5 U/ml), pyruvate oxidase (0.5 U/ml), and antifoam (50 ppm) (concentrations expressed are final assay concentrations). The pH was adjusted to 7.00 at 22° C. by addition of potassium hydroxide.
The protein components specific to this assay are chicken gizzard smooth muscle myosin subfragment-1 that has been chemically crosslinked to either cardiac or skeletal actin using an excess of 1-Ethyl-3-[3-dimethylaminopropyl]carbodiimide hydrochloride and N-hydroxysuccinimide. The exact concentration of the crosslinked smooth muscle myosin in the assay is determined empirically, by titration to achieve a desired rate of ATP hydrolysis. The concentration varies between protein preparations due to variations in the fraction of active molecules in each preparation.
Compound dose response assays are performed by first preparing a dilution series of test compound, each with an assay mixture containing potassium PIPES, MgCl2, KCl, ATP, BSA, potassium phosphate, amplex red, PEP, crosslinked smooth muscle actomyosin (subfragment-1), antifoam, and water. The assay is started by adding an equal volume of solution containing potassium Pipes, MgCl2, KCl, BSA, potassium phosphate, pyruvate kinase, horseradish peroxidase, pyruvate oxidase, antifoam, and water. ATP hydrolysis is monitored by measuring the fluorescence of amplex red (excitation at 480 nm, emission at 615 nm). The resulting dose response curve is fit by the 4 parameter equation y=Bottom+((Top-Bottom)/(1+((IC50/X)^Hill))). The IC50 is defined as the concentration at which ATPase activity is midway between the top and bottom of the dose response curve.

T1 sequence (P02607 2-151): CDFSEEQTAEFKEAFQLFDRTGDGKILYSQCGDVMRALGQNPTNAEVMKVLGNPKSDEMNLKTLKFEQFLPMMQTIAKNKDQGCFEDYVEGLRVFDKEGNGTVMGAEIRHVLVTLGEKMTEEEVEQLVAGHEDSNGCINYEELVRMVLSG
T1 sequence (P10587 84-789): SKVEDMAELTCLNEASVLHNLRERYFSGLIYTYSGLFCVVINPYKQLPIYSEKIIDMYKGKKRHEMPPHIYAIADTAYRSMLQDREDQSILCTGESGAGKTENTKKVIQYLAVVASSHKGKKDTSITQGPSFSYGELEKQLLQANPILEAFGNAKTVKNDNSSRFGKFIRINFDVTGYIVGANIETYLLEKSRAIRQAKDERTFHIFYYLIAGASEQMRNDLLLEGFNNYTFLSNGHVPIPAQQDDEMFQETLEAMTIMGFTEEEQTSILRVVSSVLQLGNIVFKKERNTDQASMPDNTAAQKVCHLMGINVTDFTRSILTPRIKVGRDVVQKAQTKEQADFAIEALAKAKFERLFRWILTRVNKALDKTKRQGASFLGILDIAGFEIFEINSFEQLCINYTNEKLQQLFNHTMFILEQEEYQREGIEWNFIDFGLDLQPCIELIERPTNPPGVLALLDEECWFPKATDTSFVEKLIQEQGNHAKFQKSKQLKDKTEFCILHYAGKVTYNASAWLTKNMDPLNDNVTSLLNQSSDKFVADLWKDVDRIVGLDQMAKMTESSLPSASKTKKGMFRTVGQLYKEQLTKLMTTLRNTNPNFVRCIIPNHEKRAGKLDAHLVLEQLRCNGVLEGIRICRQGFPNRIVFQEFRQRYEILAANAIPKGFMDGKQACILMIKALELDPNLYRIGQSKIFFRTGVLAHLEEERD

In the case of `Cn1cc(-c2nc(NCCc3cccc(F)c3)c(C(=O)NCCCNC(=O)CN)cc2F)cn1` [2-amino-N-{3-[(5-fluoro-2-{[2-(3-fluorophenyl)ethyl]amino}-6-(1-methylpyrazol-4-yl)(3-pyridyl))carbonylamino]propyl}acetamide], the IC50 turned out to be 2.49 µM.
Turning to `N#Cc1ccccc1-c1ccc(C(=O)NC[C@H]2CCCCN2C(=O)OCCN)c(NCCc2cccc(F)c2)n1` [2-aminoethyl (2R)-2-{[(6-(2-cyanophenyl)-2-{[2-(3-fluorophenyl)ethyl]amino}(3-pyridyl))carbonylamino]methyl}piperidinecarboxylate], the IC50 amounted to 0.091 µM.
The same measure for `N#Cc1ccccc1-c1ccc(C(=O)NC[C@H]2CCCN2C(=O)OCCN)c(NCCc2cccc(F)c2)n1` [2-aminoethyl (2R)-2-{[(6-(2-cyanophenyl)-2-{[2-(3-fluorophenyl)ethyl]amino}(3-pyridyl))carbonylamino]methyl}pyrrolidinecarboxylate]: 0.027 µM; for `N#Cc1ccccc1-c1ccc(C(=O)NC[C@H]2CCCCN2C(=O)OCCCl)c(NCCc2cccc(F)c2)n1` [2-chloroethyl (2R)-2-{[(6-(2-cyanophenyl)-2-{[2-(3-fluorophenyl)ethyl]amino}(3-pyridyl))carbonylamino]methyl}piperidinecarboxylate]: 2.69 µM; for `NC(=O)CNCC(O)c1ccc(-c2ccccc2)nc1NCCc1cccc(F)c1` (centres unmarked) [2-{[2-(2-{[2-(3-fluorophenyl)ethyl]amino}-6-phenyl(3-pyridyl))-2-hydroxyethyl]amino}acetamide]: 51.6 µM.
For `CS(=O)(=O)NCC1CCCCN1C(=O)c1ccc(-c2ccccc2)nc1NCCc1ccccn1` (centres unmarked) [2-{[(methylsulfonyl)amino]methyl}piperidyl 6-phenyl-2-[(2-(2-pyridyl)ethyl)amino](3-pyridyl) ketone], the IC50 was 22.2 µM.
The value for `NC(=O)c1cccc(CCNc2nc(-c3ccccc3)ccc2C(=O)NCc2cccnc2)c1` [3-[2-({6-phenyl-3-[N-(3-pyridylmethyl)carbamoyl]-2-pyridyl}amino)ethyl]benzamide] was 11.5 µM; that for `O=C(O)c1cccc(CCNc2nc(-c3ccccc3)ccc2C(=O)NCc2cccnc2)c1` [3-[2-({6-phenyl-3-[N-(3-pyridylmethyl)carbamoyl]-2-pyridyl}amino)ethyl]benzoic acid] was 21.9 µM.
The value for `CNC(=O)CCNC(=O)c1ccc(-c2ccccc2C#N)nc1NCCc1cccc(F)c1` [3-[(6-(2-cyanophenyl)-2-{[2-(3-fluorophenyl)ethyl]amino}(3-pyridyl))carbonylamino]-N-methylpropanamide] was 0.34 µM.
On to `N#Cc1ccccc1-c1ccc(C(=O)NC2CCC(C(N)=O)C2)c(NCCc2cccc(F)c2)n1` (centres unmarked) [3-[(6-(2-cyanophenyl)-2-{[2-(3-fluorophenyl)ethyl]amino}-3-pyridyl)carbonylamino]cyclopentanecarboxamide], for which the IC50 is 11.6 µM.
For the compound `N#Cc1ccccc1-c1ccc(C(=O)NCC(CN)C(=O)NCCN)c(NCCc2cccc(F)c2)n1` (centres unmarked) [3-amino-N-(2-aminoethyl)-2-{[(6-(2-cyanophenyl)-2-{[2-(3-fluorophenyl)ethyl]amino}(3-pyridyl))carbonylamino]methyl}propanamide], the IC50 amounted to 13.7 µM.
Turning to `CN(CCNC(=O)c1ccc(-c2ccccc2C#N)nc1NCCc1cccc(F)c1)C(=O)CCN` [3-amino-N-{2-[(6-(2-cyanophenyl)-2-{[2-(3-fluorophenyl)ethyl]amino}(3-pyridyl))carbonylamino]ethyl}-N-methylpropanamide], the IC50 was found to be 1.78 µM.
`N#Cc1ccccc1-c1ccc(C(=O)NCCNC(=O)CCN)c(NCCc2cccc(F)c2)n1` [3-amino-N-{2-[(6-(2-cyanophenyl)-2-{[2-(3-fluorophenyl)ethyl]amino}(3-pyridyl))carbonylamino]ethyl}propanamide]: the IC50 was 4.32 µM.
The value for `N#Cc1ccccc1-c1ccc(C(=O)NCC(=O)NCCC(=O)O)c(NCCc2cccc(F)c2)n1` [3-{2-[(6-(2-cyanophenyl)-2-{[2-(3-fluorophenyl)ethyl]amino}-3-pyridyl)carbonylamino]acetylamino}propanoic acid] was 9.67 µM.
The value for `CN(C)C(=O)CCNc1nc(-c2ccccc2C#N)ccc1C(=O)NC[C@H]1CCCN1C(=O)CCCN` [3-{[3-(N-{[(2R)-1-(4-aminobutanoyl)pyrrolidin-2-yl]methyl}carbamoyl)-6-(2-cyanophenyl)(2-pyridyl)]amino}-N,N-dimethylpropanamide] was 3.56 µM; that for `CNC(=O)CCCNC(=O)c1ccc(-c2ccccc2C#N)nc1NCCc1cccc(F)c1` [4-[(6-(2-cyanophenyl)-2-{[2-(3-fluorophenyl)ethyl]amino}(3-pyridyl))carbonylamino]-N-methylbutanamide] was 2.96 µM; that for `N#Cc1ccccc1-c1ccc(C(=O)NCCCC(=O)O)c(NCCc2cccc(F)c2)n1` [4-[(6-(2-cyanophenyl)-2-{[2-(3-fluorophenyl)ethyl]amino}-3-pyridyl)carbonylamino]butanoic acid] was 0.627 µM.
On to `CN(CCNC(=O)c1ccc(-c2ccccc2C#N)nc1NCCc1cccc(F)c1)C(=O)CCCNC(=O)OC(C)(C)C` [4-[(tert-butoxy)carbonylamino]-N-{2-[(6-(2-cyanophenyl)-2-{[2-(3-fluorophenyl)ethyl]amino}(3-pyridyl))carbonylamino]ethyl}-N-methylbutanamide], for which the IC50 was 3.88 µM.
The same measure for `CN(CCNC(=O)c1ccc(-c2ccccc2C#N)nc1NCCc1cccc(F)c1)C(=O)CCCN` [4-amino-N-{2-[(6-(2-cyanophenyl)-2-{[2-(3-fluorophenyl)ethyl]amino}(3-pyridyl))carbonylamino]ethyl}-N-methylbutanamide]: 1.2 µM.
The value for `N#Cc1ccccc1-c1ccc(C(=O)NCCNC(=O)CCCN)c(NCCc2cccc(F)c2)n1` [4-amino-N-{2-[(6-(2-cyanophenyl)-2-{[2-(3-fluorophenyl)ethyl]amino}(3-pyridyl))carbonylamino]ethyl}butanamide] was 1.27 µM; that for `NC(=O)c1ccc(-c2ccc(C(=O)NCc3cccnc3)c(NCCc3ccccn3)n2)cc1` [4-{6-[(2-(2-pyridyl)ethyl)amino]-5-[N-(3-pyridylmethyl)carbamoyl]-2-pyridyl}benzamide] was 2.54 µM.
Regarding `O=C(O)c1ccc(-c2ccc(C(=O)NCc3cccnc3)c(NCCc3ccccn3)n2)cc1` [4-{6-[(2-(2-pyridyl)ethyl)amino]-5-[N-(3-pyridylmethyl)carbamoyl]-2-pyridyl}benzoic acid], the IC50 is 18.3 µM.
The value for `CC1CN(C(=O)c2cc(F)c(-c3cnn(C)c3)nc2NCCc2cccc(F)c2)C1` [5-fluoro-2-{[2-(3-fluorophenyl)ethyl]amino}-6-(1-methylpyrazol-4-yl)(3-pyridyl) 3-methylazetidinyl ketone] was 10.5 µM.
With `N#Cc1ccccc1-c1ccc(C(=O)NCc2cccc(C(N)=O)n2)c(NCCc2cccc(F)c2)n1` [6-{[(6-(2-cyanophenyl)-2-{[2-(3-fluorophenyl)ethyl]amino}-3-pyridyl)carbonylamino]methyl}pyridine-2-carboxamide], the IC50 was determined as 0.06 µM.
As for `N#Cc1ccccc1-c1ccc(C(=O)NCc2cccc(C(=O)O)n2)c(NCCc2cccc(F)c2)n1` [6-{[(6-(2-cyanophenyl)-2-{[2-(3-fluorophenyl)ethyl]amino}-3-pyridyl)carbonylamino]methyl}pyridine-2-carboxylic acid], the IC50 was determined as 0.047 µM.
With `CN1CCC(CCNc2nc(-c3ccccc3)ccc2C(=O)NCc2cccnc2)CC1` [(2-{[2-(1-methyl(4-piperidyl))ethyl]amino}-6-phenyl(3-pyridyl))-N-(3-pyridylmethyl)carboxamide], the IC50 is 20.1 µM.
`Cn1cnc(CCNc2nc(-c3ccccc3)ccc2C(=O)NCc2cccnc2)c1` [(2-{[2-(1-methylimidazol-4-yl)ethyl]amino}-6-phenyl(3-pyridyl))-N-(3-pyridylmethyl)carboxamide]: the IC50 amounted to 32.2 µM.
The value for `N#Cc1ccccc1-c1ccc(C(=O)NCc2cccnc2)c(NCCc2cccc(F)c2F)n1` [(2-{[2-(2,3-difluorophenyl)ethyl]amino}-6-(2-cyanophenyl)(3-pyridyl))-N-(3-pyridylmethyl)carboxamide] was 0.022 µM.
Consider `O=C(NCc1cccnc1)c1ccc(-c2ccccc2)nc1NCCc1cc(F)ccc1F` [(2-{[2-(2,5-difluorophenyl)ethyl]amino}-6-phenyl(3-pyridyl))-N-(3-pyridylmethyl)carboxamide], for which the IC50 was 0.079 µM.
